In one assay the target is T1, Recombinant human Src (Homo sapiens, UniProt P12931).
T1 construct: made in house; host or cells: baculovirus-insect cell system
T1 sequence (P12931 whole entry): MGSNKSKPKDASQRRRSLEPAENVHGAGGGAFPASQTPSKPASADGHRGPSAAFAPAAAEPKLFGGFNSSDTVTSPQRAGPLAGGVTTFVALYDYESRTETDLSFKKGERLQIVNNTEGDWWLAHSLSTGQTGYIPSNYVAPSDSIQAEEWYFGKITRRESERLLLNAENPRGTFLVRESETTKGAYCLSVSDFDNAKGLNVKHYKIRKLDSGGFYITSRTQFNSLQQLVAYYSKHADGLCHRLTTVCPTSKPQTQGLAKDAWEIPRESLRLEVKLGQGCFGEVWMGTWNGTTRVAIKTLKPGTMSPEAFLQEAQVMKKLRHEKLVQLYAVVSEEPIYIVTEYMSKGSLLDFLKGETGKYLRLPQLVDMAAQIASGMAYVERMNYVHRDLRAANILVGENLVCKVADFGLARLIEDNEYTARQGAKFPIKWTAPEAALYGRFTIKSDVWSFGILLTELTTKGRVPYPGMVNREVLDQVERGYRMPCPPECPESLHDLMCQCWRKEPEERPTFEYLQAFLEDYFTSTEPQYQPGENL
As to the kind of experiment: Src tyrosine kinase activity, poly E4Y / 32P-ATP phosphorylation assay. Type of assay: biochemical. The conditions noted are these: Table 2, Formula I compounds; NI = no inhibition at 100 μg/mL. How it is done: Recombinant human Src was expressed using the baculovirus-insect cell system and purified as published (Budde et al., 1993 and 2000).
The tyrosine kinase activity of Src, Csk and FGFr was determined using poly E4Y and ^32P-ATP. Briefly, enzymes were assayed in a reaction mixture consisting of 0.15 M EPPS-NaOH (pH 8.0) with 6 mM MgCl2, 0.2 mM γ^32P-ATP (0.2-0.4 mCi/μmol), 10% glycerol, 0.1% Triton X-100, and poly E4Y. Poly E4Y is a synthetic peptide whose phosphorylation is measured in this assay by the addition of the radioactively labeled phosphate from the ATP (Budde et al., 1995). […] When ATP was varied (0, 50, 100 and 250 μM), poly E4Y was kept constant at 150 μg/ml.
As a reminder, the IC50 is the concentration that inhibits the measured activity by half. `Cc1ccc(S(=O)(=O)Nc2cc(NCc3cccnc3)c([N+](=O)[O-])cc2NS(=O)(=O)c2ccc(C)cc2)cc1` [Compound 9d, N-[5-nitro-4-[(pyridin-3-ylmethyl)-amino]-2-(4-toluenesulfonylamino)-phenyl]-4-toluenesulfonamide]: the IC50 was more than 176 µM.
In the case of `Cc1ccc(S(=O)(=O)Nc2cc(NCc3ccccc3Cl)c([N+](=O)[O-])cc2NS(=O)(=O)c2ccc(C)cc2)cc1` [Compound 9g, N-[4-(2-chloro-benzylamino)-5-nitro-2-(4-toluenesulfonylamino)-phenyl]-4-toluenesulfonamide], the IC50 was 54 µM.

Staying with this assay, now noted: Table 2; compound at 15 ug/mL; read-out: % Inhibition at 15 ug/mL Src (%).
Regarding `Cc1ccc(S(=O)(=O)Nc2cc(N3CCN(C)CC3)c([N+](=O)[O-])cc2NS(=O)(=O)c2ccc(C)cc2)cc1` [Compound 9b, N-[4-(4-methyl-piperazin-1-yl)-5-nitro-2-(4-toluenesulfonylamino)-phenyl]-4-toluenesulfonamide], the inhibition at 15 µg/mL amounted to 2%.
As for `Cc1ccc(S(=O)(=O)Nc2cc(N3CCSCC3)c([N+](=O)[O-])cc2NS(=O)(=O)c2ccc(C)cc2)cc1` [Compound 9c, N-[5-nitro-4-(thiomorpholin-4-yl)-2-(4-toluenesulfonylamino)-phenyl]-4-toluenesulfonamide], the inhibition at 15 µg/mL came to 15%.
For the molecule `Cc1ccc(S(=O)(=O)Nc2cc(NCc3ccccn3)c([N+](=O)[O-])cc2NS(=O)(=O)c2ccc(C)cc2)cc1` [Compound 9e, N-[5-nitro-4-[(pyridin-2-ylmethyl)-amino]-2-(4-toluenesulfonylamino)-phenyl]-4-toluenesulfonamide], the inhibition at 15 µg/mL worked out at 15%.
For the molecule `COc1ccc(CNc2cc(NS(=O)(=O)c3ccc(C)cc3)c(NS(=O)(=O)c3ccc(C)cc3)cc2[N+](=O)[O-])cc1` [Compound 9f, N-[4-(4-methoxy-benzylamino)-5-nitro-2-(4-toluenesulfonylamino)-phenyl]-4-toluenesulfonamide], the inhibition at 15 µg/mL stood at 17%.
On the same count and under the same terms, then `Cc1ccc(S(=O)(=O)Nc2cc(NCc3ccccc3Cl)c([N+](=O)[O-])cc2NS(=O)(=O)c2ccc(C)cc2)cc1` [Compound 9g, N-[4-(2-chloro-benzylamino)-5-nitro-2-(4-toluenesulfonylamino)-phenyl]-4-toluenesulfonamide], with 65%; and `Cc1ccc(S(=O)(=O)Nc2cc(NCC3CCCCC3)c([N+](=O)[O-])cc2NS(=O)(=O)c2ccc(C)cc2)cc1` [Compound 9h, N-[4-(cyclohexylmethyl-amino)-5-nitro-2-(4-toluenesulfonylamino)-phenyl]-4-toluenesulfonamide], with 22%; and `Cc1ccc(S(=O)(=O)Nc2cc(NCC3(O)CCCCC3)c([N+](=O)[O-])cc2NS(=O)(=O)c2ccc(C)cc2)cc1` [Compound 9i, N-[4-(1-hydroxy-cyclohexylmethyl-amino)-5-nitro-2-(4-toluenesulfonylamino)-phenyl]-4-toluenesulfonamide], with 18%.
As to `Cc1ccc(S(=O)(=O)Nc2cc(NC3CCCCC3)c([N+](=O)[O-])cc2NS(=O)(=O)c2ccc(C)cc2)cc1` [Compound 9j, N-[4-cyclohexylamino-5-nitro-2-(4-toluenesulfonylamino)-phenyl]-4-toluenesulfonamide], the inhibition at 15 µg/mL stood at 4%.
As for `Cc1ccc(S(=O)(=O)Nc2cc(NCCCc3cn[nH]c3C)c([N+](=O)[O-])cc2NS(=O)(=O)c2ccc(C)cc2)cc1` [Compound 9k, N-[4-[3-(5-methyl-1H-pyrazol-4-yl)-propylamino]-5-nitro-2-(4-toluenesulfonylamino)-phenyl]-4-toluenesulfonamide], the inhibition at 15 µg/mL was determined as 13%.

Staying with this assay, now noted: Table 2; compound at 50 μg/mL (starred values); read-out: % Inhibition Src (%), * = assayed at 50 μg/mL.
With `Cc1ccc(S(=O)(=O)Nc2cc(N3CCOCC3)c([N+](=O)[O-])cc2NS(=O)(=O)c2ccc(C)cc2)cc1` [Compound 9a, N-[4-(morpholin-4-yl)-5-nitro-2-(4-toluenesulfonylamino)-phenyl]-4-toluenesulfonamide], the inhibition at 50 µg/mL was found to be 13%.
With `Cc1ccc(S(=O)(=O)Nc2cc(NCc3cccnc3)c([N+](=O)[O-])cc2NS(=O)(=O)c2ccc(C)cc2)cc1` [Compound 9d, N-[5-nitro-4-[(pyridin-3-ylmethyl)-amino]-2-(4-toluenesulfonylamino)-phenyl]-4-toluenesulfonamide], the inhibition at 50 µg/mL came out at 19%.

Still in this assay, the particulars now being: Table 3, Formula II compounds; NI = no inhibition at 100 μg/mL.
`CC(=O)OCCCCCOc1ccc(NS(=O)(=O)c2ccc(C)cc2)c(NS(=O)(=O)c2ccc(C)cc2)c1` [Compound 12ee, 5-[3,4-bis-(4-toluenesulfonylamino)-phenoxy]-pentyl acetate]: the IC50 is 131 µM.
As to `C=CCc1c(OCc2ccc(OC)cc2)ccc(NS(=O)(=O)c2ccc(C)cc2)c1NS(=O)(=O)c1ccc(C)cc1` [Compound 15a, N-[3-allyl-4-(4-methoxy-benzyloxy)-2-(4-toluenesulfonylamino)-phenyl]-4-toluenesulfonamide], the IC50 was found to be 212 µM.
In the case of `COc1ccc(Oc2ccc(NS(=O)(=O)c3cccc(OC)c3)c(NS(=O)(=O)c3ccc(C)cc3)c2)cc1` [Compound 22aa, 3-methoxy-N-[4-(4-methoxy-phenoxy)-2-(4-toluenesulfonylamino)-phenyl]-benzenesulfonamide], the IC50 was determined as 133 µM.
Consider `COc1ccc(Oc2ccc(NS(=O)(=O)c3ccc(Br)s3)c(NS(=O)(=O)c3ccc(C)cc3)c2)cc1` [Compound 22bb, N-[4-(4-methoxy-phenoxy)-2-(4-toluenesulfonylamino)-phenyl]-5-bromo-thiophene-2-sulfonamide], for which the IC50 is 19.5 µM.
For `Cc1ccc(S(=O)(=O)Nc2ccc(C(=O)NC(C)(C)C)cc2NS(=O)(=O)c2ccc(C)cc2)cc1` [Compound 22c, N-t-butyl-3,4-bis-(4-toluenesulfonylamino)-benzamide], the IC50 amounted to 300 µM.
Consider `COc1ccc(Oc2ccc(NS(=O)(=O)c3cccc4cnccc34)c(NS(=O)(=O)c3ccc(C)cc3)c2)cc1` [Compound 22cc, N-[4-(4-methoxy-phenoxy)-2-(4-toluenesulfonylamino)-phenyl]-isoquinoline-5-sulfonamide], for which the IC50 came out at 45 µM.
On to `Cc1ccc(S(=O)(=O)Nc2ccc(C(=O)Nc3ccccc3)cc2NS(=O)(=O)c2ccc(C)cc2)cc1` [Compound 22e, N-phenyl-3,4-bis-(4-toluenesulfonylamino)-benzamide], for which the IC50 was 149 µM.
In the case of `COc1ccc(Oc2ccc(NS(=O)(=O)c3ccc(C)cc3)c(NS(=O)(=O)CCc3cccc4ccccc34)c2)cc1` [Compound 22ee, N-[4-(4-methoxy-phenoxy)-2-(2-naphthalen-1-yl-ethanesulfonylamino)-phenyl]-4-toluenesulfonamide], the IC50 stood at 50 µM.
As for `Cc1ccc(S(=O)(=O)Nc2ccc(C(=O)NCc3cccc4ccccc34)cc2NS(=O)(=O)c2ccc(C)cc2)cc1` [Compound 22g, N-naphthalen-1-ylmethyl-3,4-bis-(4-toluenesulfonylamino)-benzamide], the IC50 was determined as 18 µM.
The same measure, in the same setting: with `COc1ccc(Oc2ccc(NS(=O)(=O)c3ccc(C)cc3)c(NS(=O)(=O)c3ccc(Br)s3)c2)cc1` [Compound 22gg, 5-bromo-N-[5-(4-methoxy-phenoxy)-2-(4-toluenesulfonylamino)-phenyl]-thiophene-2-sulfonamide] the figure was 24 µM.
With `Cc1ccc(S(=O)(=O)Nc2ccc(NC(=O)Cc3ccccc3)cc2NS(=O)(=O)c2ccc(C)cc2)cc1` [Compound 22h, 2-phenyl-N-[3,4-bis-(4-toluenesulfonylamino)-phenyl]-acetamide], the IC50 is 47 µM.

The assay is the same for the next values; noted with them: Table 3; compound at 15 μg/mL; read-out: % Inhibition at 15 μg/mL Src (%).
Turning to `C=CCOc1ccc(NS(=O)(=O)c2ccc(C)cc2)c(NS(=O)(=O)c2ccc(C)cc2)c1` [Compound 12cc, N-[4-allyloxy-2-(4-toluenesulfonylamino)-phenyl]-4-toluenesulfonamide], the inhibition at 15 µg/mL was 19%.
Regarding `Cc1ccc(S(=O)(=O)Nc2ccc(OCCCCCCCCO)cc2NS(=O)(=O)c2ccc(C)cc2)cc1` [Compound 12dd, N-[4-(8-hydroxy-octyloxy)-2-(4-toluenesulfonylamino)-phenyl]-4-toluenesulfonamide], the inhibition at 15 µg/mL came to 36%.
On the same count and under the same terms, then `COc1ccc(CCNC(=O)c2ccc(NS(=O)(=O)c3ccc(C)cc3)c(NS(=O)(=O)c3ccc(C)cc3)c2)cc1` [Compound 22b, N-[2-(4-methoxy-phenyl)-ethyl]-3,4-bis-(4-toluenesulfonylamino)-benzamide], with 25%; and `Cc1ccc(S(=O)(=O)Nc2ccc(C(=O)Nc3cccnc3)cc2NS(=O)(=O)c2ccc(C)cc2)cc1` [Compound 22d, N-pyridin-3-yl-3,4-bis-(4-toluenesulfonylamino)-benzamide], with 0%.
With `COC(=O)c1c(S(=O)(=O)Nc2cc(Oc3ccc(OC)cc3)ccc2NS(=O)(=O)c2ccc(C)cc2)c(C)n(C)c1C` [Compound 22dd, methyl 4-[5-(4-methoxy-phenoxy)-2-(4-toluenesulfonylamino)-phenylsulfamoyl]-1,2,5-trimethyl-1H-pyrrole-3-carboxylate], the inhibition at 15 µg/mL was 5%.
Take `Cc1ccc(S(=O)(=O)Nc2ccc(C(=O)NCC(C)(C)CO)cc2NS(=O)(=O)c2ccc(C)cc2)cc1` [Compound 22f, N-(3-hydroxy-2,2-dimethyl-propyl)-3,4-bis-(4-toluenesulfonylamino)-benzamide]: the inhibition at 15 µg/mL came out at 3%.
On to `COc1ccc(Oc2ccc(NS(=O)(=O)c3ccc(C)cc3)c(NS(=O)(=O)c3ccc(S(C)(=O)=O)cc3)c2)cc1` [Compound 22ff, 4-methanesulfonyl-N-[5-(4-methoxy-phenoxy)-2-(4-toluenesulfonylamino)-phenyl]-benzenesulfonamide], for which the inhibition at 15 µg/mL was determined as 2%.

The assay is the same for the next values; noted with them: Table 3; compound at 50 μg/mL (starred values); read-out: % Inhibition Src (%), * = assayed at 50 μg/mL.
Regarding `Cc1ccc(S(=O)(=O)Nc2ccc(OCCCCCO)cc2NS(=O)(=O)c2ccc(C)cc2)cc1` [Compound 12s, N-[4-(5-hydroxy-pentyloxy)-2-(4-toluenesulfonylamino)-phenyl]-4-toluenesulfonamide], the inhibition at 50 µg/mL turned out to be 9%.
